Key:
Test in all cases: cells
Conditions in all cases: Homo sapiens
ES7 = type: functional, cell-based;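 also: growth inhibition of cultured human ES7 cells, read out as cell viability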
Description: SANGER: Inhibition of human ES7 cell growth in a cell viability assay.

NB69 = type: functional, cell-based;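 also: growth inhibition of NB69 cells, determined by a cell viability assay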
Description: SANGER: Inhibition of human NB69 cell growth in a cell viability assay.

OS-RC-2 = type: functional, cell-based;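 also: growth inhibition of human OS-RC-2 cells, measured by a cell viability assay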
Description: SANGER: Inhibition of human OS-RC-2 cell growth in a cell viability assay.

CW-2 = type: functional, cell-based;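 also: growth inhibition of CW-2 cells, read out by a cell viability assay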
Description: SANGER: Inhibition of human CW-2 cell growth in a cell viability assay.

SJSA-1 = type: functional, cell-based;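 also: growth inhibition of human SJSA-1 cells, read out through a cell viability measurement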
Description: SANGER: Inhibition of human SJSA-1 cell growth in a cell viability assay.

K5 = type: functional, cell-based
Description: SANGER: Inhibition of human K5 cell growth in a cell viability assay.

NMC-G1 = type: functional, cell-based;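 also: growth inhibition of the NMC-G1 cell line, measured with a cell viability read-out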
Description: SANGER: Inhibition of human NMC-G1 cell growth in a cell viability assay.

HCE-4 = type: functional, cell-based;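 also: cell viability assay measuring inhibition of growth in the human HCE-4 cell line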
Description: SANGER: Inhibition of human HCE-4 cell growth in a cell viability assay.

BB30-HNC = type: functional, cell-based;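 also: growth inhibition of the cultured cell line, read out by a cell viability assay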
Description: SANGER: Inhibition of human BB30-HNC cell growth in a cell viability assay.

BB65-RCC = type: functional, cell-based;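 also: growth inhibition of the cell line, measured with a cell viability assay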
Description: SANGER: Inhibition of human BB65-RCC cell growth in a cell viability assay.

NH-12 = type: functional, cell-based;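 also: growth inhibition of NH-12 cells, read out with a cell viability assay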
Description: SANGER: Inhibition of human NH-12 cell growth in a cell viability assay.

LU-139 = type: functional, cell-based
Description: SANGER: Inhibition of human LU-139 cell growth in a cell viability assay.

TE-1 = type: functional, cell-based
Description: SANGER: Inhibition of human TE-1 cell growth in a cell viability assay.

COLO-668 = type: functional, cell-based
Description: SANGER: Inhibition of human COLO-668 cell growth in a cell viability assay.

CAS-1 = type: functional, cell-based;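 also: growth inhibition of CAS-1 cells, measured with a cell viability assay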
Description: SANGER: Inhibition of human CAS-1 cell growth in a cell viability assay.

QIMR-WIL = type: functional, cell-based;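 also: growth inhibition of QIMR-WIL cells, read out with a cell viability assay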
Description: SANGER: Inhibition of human QIMR-WIL cell growth in a cell viability assay.

EW-16 = type: functional, cell-based;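 also: growth inhibition of human EW-16 cells, read out as cell viability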
Description: SANGER: Inhibition of human EW-16 cell growth in a cell viability assay.

NCI-H2126 = type: functional, cell-based;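 also: growth inhibition of the cancer cell line, determined with a cell viability readout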
Description: SANGER: Inhibition of human NCI-H2126 cell growth in a cell viability assay.

LS-123 = type: functional, cell-based
Description: SANGER: Inhibition of human LS-123 cell growth in a cell viability assay.

KM12 = type: functional, cell-based;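 also: KM12 cell growth inhibition, read out with a cell viability assay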
Description: SANGER: Inhibition of human KM12 cell growth in a cell viability assay.

LB2241-RCC = type: functional, cell-based;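 also: cell viability assay measuring how strongly the cultured human renal carcinoma line is prevented from growing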
Description: SANGER: Inhibition of human LB2241-RCC cell growth in a cell viability assay.

HCE-T = type: functional, cell-based;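 also: cell viability assay read-out, reporting inhibition of HCE-T cell growth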
Description: SANGER: Inhibition of human HCE-T cell growth in a cell viability assay.

KGN = type: functional, cell-based;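 also: growth inhibition of KGN cells, read out with a cell viability assay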
Description: SANGER: Inhibition of human KGN cell growth in a cell viability assay.

LC-2-ad = type: functional, cell-based;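 also: growth inhibition of human LC-2-ad cells, read out with a cell viability assay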
Description: SANGER: Inhibition of human LC-2-ad cell growth in a cell viability assay.

TE-11 = type: functional, cell-based;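 also: growth inhibition of human TE-11 cells, read out by a cell viability assay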
Description: SANGER: Inhibition of human TE-11 cell growth in a cell viability assay.

SW684 = type: functional, cell-based;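 also: growth inhibition of human SW684 cells, measured by a cell viability assay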
Description: SANGER: Inhibition of human SW684 cell growth in a cell viability assay.

MFH-ino = type: functional, cell-based;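 also: growth inhibition of human MFH-ino cells, read out by a cell viability assay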
Description: SANGER: Inhibition of human MFH-ino cell growth in a cell viability assay.

LB771-HNC = type: functional, cell-based;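 also: growth inhibition of LB771-HNC human cells, read out with a cell viability assay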
Description: SANGER: Inhibition of human LB771-HNC cell growth in a cell viability assay.

P30-OHK = type: functional, cell-based;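 also: growth inhibition of the P30-OHK cell line, read out with a cell viability assay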
Description: SANGER: Inhibition of human P30-OHK cell growth in a cell viability assay.

SNU-5 = type: functional, cell-based;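 also: cell viability readout used to measure growth inhibition in human NCI-SNU-5 cells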
Description: SANGER: Inhibition of human NCI-SNU-5 cell growth in a cell viability assay.

EW-1 = type: functional, cell-based
Description: SANGER: Inhibition of human EW-1 cell growth in a cell viability assay.

COR-L88 = type: functional, cell-based;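 also: growth inhibition of COR-L88 cells, read out with a cell viability assay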
Description: SANGER: Inhibition of human COR-L88 cell growth in a cell viability assay.

EM-2 = type: functional, cell-based;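 also: growth inhibition of EM-2 cells, read out with a cell viability assay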
Description: SANGER: Inhibition of human EM-2 cell growth in a cell viability assay.

NCI-H226 = type: functional, cell-based;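 also: cell viability read-out used to gauge growth inhibition of the cells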
Description: SANGER: Inhibition of human NCI-H226 cell growth in a cell viability assay.

A3-KAW = type: functional, cell-based;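 also: growth inhibition of human A3-KAW cells, read out with a cell viability assay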
Description: SANGER: Inhibition of human A3-KAW cell growth in a cell viability assay.

COLO-829 = type: functional, cell-based
Description: SANGER: Inhibition of human COLO-829 cell growth in a cell viability assay.

SW872 = type: functional, cell-based;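 also: growth inhibition of SW872 cells, read out by a viability assay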
Description: SANGER: Inhibition of human SW872 cell growth in a cell viability assay.

ALL-PO = type: functional, cell-based;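 also: growth inhibition of ALL-PO cells, read out by a cell viability assay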
Description: SANGER: Inhibition of human ALL-PO cell growth in a cell viability assay.

EW-18 = type: functional, cell-based;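 also: growth inhibition of EW-18 cells, read out by a cell viability assay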
Description: SANGER: Inhibition of human EW-18 cell growth in a cell viability assay.

SF-539 = type: functional, cell-based;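 also: Read-out is a cell viability assay, with IC50 reflecting inhibition of cell growth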
Description: SANGER: Inhibition of human SF539 cell growth in a cell viability assay.

D283 Med = type: functional, cell-based
Description: SANGER: Inhibition of human D-283MED cell growth in a cell viability assay.

LS-1034 = type: functional, cell-based
Description: SANGER: Inhibition of human LS-1034 cell growth in a cell viability assay.

MHH-NB-11 = type: functional, cell-based;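 also: growth inhibition of human MHH-NB-11 cells, read out by a cell viability assay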
Description: SANGER: Inhibition of human MHH-NB-11 cell growth in a cell viability assay.

NCI-H23 = type: functional, cell-based;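 also: cell viability assay measuring growth inhibition of NCI-H23 cells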
Description: SANGER: Inhibition of human NCI-H23 cell growth in a cell viability assay.

U-87 MG = type: functional, cell-based, U-87MG ATCC;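 also: growth inhibition of the cells measured with a viability assay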
Description: SANGER: Inhibition of human U-87-MG cell growth in a cell viability assay.

IA-LM = type: functional, cell-based;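 also: cell viability assay measuring growth inhibition of human IA-LM cells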
Description: SANGER: Inhibition of human IA-LM cell growth in a cell viability assay.

EW-3 = type: functional, cell-based;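 also: cell viability assay read-out, IC50 reflects inhibition of growth of the EW-3 cells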
Description: SANGER: Inhibition of human EW-3 cell growth in a cell viability assay.

MPP-89 = type: functional, cell-based;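 also: growth inhibition of human MPP-89 cells, read out with a cell viability assay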
Description: SANGER: Inhibition of human MPP-89 cell growth in a cell viability assay.

ML-2 = type: functional, cell-based;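 also: growth inhibition of ML-2 cells, measured with a cell viability readout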
Description: SANGER: Inhibition of human ML-2 cell growth in a cell viability assay.

8-MG-BA = type: functional, cell-based;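 also: growth inhibition of 8-MG-BA cells, read out with a cell viability assay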
Description: SANGER: Inhibition of human 8-MG-BA cell growth in a cell viability assay.

A4-Fuk = type: functional, cell-based;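 also: growth inhibition of A4-Fuk cells, read out by a cell viability assay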
Description: SANGER: Inhibition of human A4-Fuk cell growth in a cell viability assay.

HT-144 = type: functional, cell-based
Description: SANGER: Inhibition of human HT-144 cell growth in a cell viability assay.

NCI-H209 = type: functional, cell-based;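 also: growth inhibition of human NCI-H209 cells, measured by a cell viability assay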
Description: SANGER: Inhibition of human NCI-H209 cell growth in a cell viability assay.

TE-8 = type: functional, cell-based;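 also: growth inhibition of TE-8 cells, measured with a cell viability readout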
Description: SANGER: Inhibition of human TE-8 cell growth in a cell viability assay.

NCI-H1581 = type: functional, cell-based;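 also: cell growth inhibition read out by a viability assay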
Description: SANGER: Inhibition of human NCI-H1581 cell growth in a cell viability assay.

A498 = type: functional, cell-based;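 also: growth inhibition of human A498 cells, read out with a cell viability assay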
Description: SANGER: Inhibition of human A498 cell growth in a cell viability assay.

NB13 = type: functional, cell-based;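 also: cell viability readout measuring growth inhibition of human NB13 cells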
Description: SANGER: Inhibition of human NB13 cell growth in a cell viability assay.

HOP-62 = type: functional, cell-based;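 also: cell growth inhibition determined with a viability assay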
Description: SANGER: Inhibition of human HOP-62 cell growth in a cell viability assay.

ACN = type: functional, cell-based;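 also: growth inhibition of the human ACN cell line, read out via cell viability testing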
Description: SANGER: Inhibition of human ACN cell growth in a cell viability assay.

DOHH-2 = type: functional, cell-based;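 also: growth inhibition of human DOHH-2 cells, read out with a cell viability assay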
Description: SANGER: Inhibition of human DOHH-2 cell growth in a cell viability assay.

PSN1 = type: functional, cell-based
Description: SANGER: Inhibition of human PSN1 cell growth in a cell viability assay.

D-502MG = type: functional, cell-based
Description: SANGER: Inhibition of human D-502MG cell growth in a cell viability assay.

LS-411N = type: functional, cell-based
BV-173 = type: functional, cell-based
Description: SANGER: Inhibition of human BV-173 cell growth in a cell viability assay.

SK-LMS-1 = type: functional, cell-based
Description: SANGER: Inhibition of human SK-LMS-1 cell growth in a cell viability assay.

CTB-1 = type: functional, cell-based
Description: SANGER: Inhibition of human CTB-1 cell growth in a cell viability assay.

Measured: IC50

C/C(O)=C(\C#N)C(=O)Nc1cc(Br)ccc1Br
> 16 µM: all assays above

From ChEMBL document CHEMBL1201861, “Genomics of Drug Sensitity in Cancer screening data, Wellcome Trust Sanger Institute”
